Source: PMC4550478, “Metronidazole-triazole conjugates: Activity against Clostridium difficile and parasites” (European Journal of Medicinal Chemistry, 2015)
≈ marks a conversion by molar mass, not a printed value. Read-outs that look alike come from different tables or passages of the source.

Legend:
[1] = MIC against ESKAPE pathogens, aerobic; assay type: cell-based; details: aerobic conditions, single concentration screen, n = 3; read-out: MIC ESKAPE bacteria
Description: All compounds were tested for activity against a set of anaerobic C. difficile bacteria (630 ATCC BAA-1382, NAP1/027 M7404, NAP1/027 ATCC BAA-1803, VPI10463 ATCC 43255, CD26A54_S and CD26A54_R) and representative ESKAPE pathogens S. aureus (MRSA ATCC 43300), E. coli (ATCC 25922), K. pneumoniae (ATCC 700603), A. baumannii (ATCC 19606) and P. aeruginosa (ATCC 27853) using a standard broth microdilution assay. Selected compounds were tested for activity against H. pylori strains (26695, and clinical isolates MtzS 13/25, MtzR 98/285 and MtzR 13/61) using agar plate dilution, and for antimicrobial activity against twelve Gram-positive bacterial strains: Enterococcus faecalis (VanA clinical isolate), Enterococcus faecium (MDR VanA ATCC 51559), Streptococcus pneumoniae (MDR ATCC 700677), S. aureus (MRSA ATCC 43300, MRSA clinical isolate, MRSA/DRSA clinical isolate, GISA NARSA NRS 1, GISA NARSA NRS 17, VRSA NARSA VRS1, VRSA NARSA VRS4 and VRSA NARSA VRS10) using broth microdilution. C. difficile strains were grown at 37 °C in a COY anaerobic chamber (5% H2, 10% CO2, 85% N2). H. pylori strains were grown at 37 °C under a microaerobic atmosphere (5% O2, 10% CO2). All facultative anaerobic bacteria were grown at 37 °C with normal atmospheric oxygen levels. […] Positive growth control of bacteria and DMSO as well as a negative control of only media were included for every plate. Full assay details are provided in the supplementary information.
MICs were determined by a two-fold serial broth micro dilution according to the recommendation of CLSI standards with an inoculum of 5 × 10^5 CFU/mL^4 The compounds along with standard antibiotics were serially diluted twofold across the wells of 96-well non-binding surface plates (NBS, Corning). […] Gram-positive and Gram-negative bacteria were cultured in Mueller Hinton broth (MHB) (Bacto laboratories, Cat. no. 211443) at 37 °C overnight. A sample of each culture was then diluted 40-fold in fresh MHB broth and incubated at 37 °C for 2-3 h. The resultant mid-log phase cultures were diluted to the final concentration of 5 × 10^5 CFU/mL, then 50 μL was added to each well of the compound containing 96-well plates. All the plates were covered and incubated at 37 °C for 24 h.

[2] = test system: C. difficile NAP1/027 ATCC BAA-1803; experiment: MIC broth microdilution, C. difficile NAP1/027 ATCC BAA-1803; assay type: cell-based, Clostridium difficile; details: Clostridioides difficile
Description: All compounds were tested for activity against a set of anaerobic C. difficile bacteria (630 ATCC BAA-1382, NAP1/027 M7404, NAP1/027 ATCC BAA-1803, VPI10463 ATCC 43255, CD26A54_S and CD26A54_R) and representative ESKAPE pathogens S. aureus (MRSA ATCC 43300), E. coli (ATCC 25922), K. pneumoniae (ATCC 700603), A. baumannii (ATCC 19606) and P. aeruginosa (ATCC 27853) using a standard broth microdilution assay. Selected compounds were tested for activity against H. pylori strains (26695, and clinical isolates MtzS 13/25, MtzR 98/285 and MtzR 13/61) using agar plate dilution, and for antimicrobial activity against […] Gram-positive bacterial strains: Enterococcus faecalis (VanA clinical isolate), Enterococcus faecium (MDR VanA ATCC 51559), Streptococcus pneumoniae (MDR ATCC 700677), S. aureus (MRSA ATCC 43300, MRSA clinical isolate, MRSA/DRSA clinical isolate, GISA NARSA NRS 1, GISA NARSA NRS 17, VRSA NARSA VRS1, VRSA NARSA VRS4 and VRSA NARSA VRS10) using broth microdilution. C. difficile strains were grown at 37 °C in a COY anaerobic chamber (5% H2, 10% CO2, 85% N2). H. pylori strains were grown at 37 °C under a microaerobic atmosphere (5% O2, 10% CO2). All facultative anaerobic bacteria were grown at 37 °C with normal atmospheric oxygen levels. All experiments were performed in duplicate with metronidazole, vancomycin, linezolid or colistin as positive controls for relevant strains (see Table 1). Positive growth control of bacteria and DMSO as well as a negative control of only media were included for every plate. Full assay details are provided in the supplementary information.
C. difficile ATCC BAA-1382, ATCC BAA-1803, ATCC 43255 and M7404 heat shocked spore stocks (10 µL) were transferred into the anaerobic chamber and 10 µL streaked onto pre-reduced (at least 2.5 hr in anaerobic chamber) BHIS agar plates supplemented with 0.1% w/v sodium taurocholate (BHIS(TA)). Plates were incubated for 24 hours prior to assay to give colonies of size 1-3mm diameter with characteristic uneven borders.
The minimum inhibition concentration was determined according to the CLSI Methods with modifications in broth and inoculum for C. difficile according to Babakhani et al.^7,8 Briefly, compounds were prepared to 20X final concentration in 100% water, 60% DMSO and 40% water or 60% DMSO and 40% media. The compounds along with standard antibiotics were serially diluted two-fold across the wells of 96-well non-binding surface plates (Non binding surface, Corning). The plates were placed in the anaerobic chamber overnight to reduce. C. difficile bacteria from BHIS(TA) agar plates were cultured anaerobically in BHIS at 37 °C overnight. A sample of culture was then diluted 40-fold in BHIS broth and incubated at 37 °C for approximately 4.5 hrs. The resultant mid-log phase culture (OD600= 0.5-0.6) was diluted to the final concentration of ~1×10^6 CFU/mL, then 50 µL was added to each well of the compound-containing 96-well plates. This gave final cell concentration of 5×10^5 CFU/mL, final volume 100 µL and 3% maximum DMSO concentration. Compound concentration was typically from 64 to 0.03 µg/mL. An antibiotic standard was included on each 96 well plate as well as a positive growth control (no compound) and sterility control (no bacteria). […] MICs were the lowest concentration showing no visible growth.

[3] = ATCC 43255 / ATCC BAA-1803, NAP1/027 (footnote c: ATCC 43255), MtzS, 24 h, median of at least n = 4, read-out: MIC C. difficile NAP1/027 (footnote c)
[4] = ATCCBAA1803, 24 hr incubation, read-out: MIC C. difficile NAP1/027 ATCC BAA-1803 24 hr
[5] = ATCCBAA1803, 48 hr incubation, read-out: MIC C. difficile NAP1/027 ATCC BAA-1803 48 hr

Cc1ncc([N+](=O)[O-])n1CCn1cc(CO)nn1 [Compound 4q, 1-(2-(2-methyl-5-nitro-1H-imidazol-1-yl)ethyl)-4-(hydroxymethyl)-1H-1,2,3-triazole]
MIC [1]: > 32 µg/mL | MIC [2, 3]: 16 to 32 µg/mL (≈ 63.4 to 127 µM) | MIC [2, 4]: 16 µg/mL (≈ 63.4 µM) | MIC [2, 5]: 16 to 32 µg/mL (≈ 63.4 to 127 µM)

Cc1ncc([N+](=O)[O-])n1CCn1cc(CCC(=O)O)nn1 [Compound 4r, sodium 1-(2-(2-methyl-5-nitro-1H-imidazol-1-yl)ethyl)-4-(carboxyethyl)-1H-1,2,3-triazole]
MIC [1]: > 32 µg/mL | MIC [2, 3]: > 64 µg/mL | MIC [2, 4]: > 64 µg/mL | MIC [2, 5]: > 64 µg/mL

Cc1ncc([N+](=O)[O-])n1CCn1cc(C(=O)O)nn1 [Compound 4s, 1-(2-(2-methyl-5-nitro-1H-imidazol-1-yl)ethyl)-4-(carboxy)-1H-1,2,3-triazole]
MIC [1]: > 32 µg/mL | MIC [2, 3]: 64 µg/mL (≈ 240 µM) | MIC [2, 4]: 64 µg/mL (≈ 240 µM) | MIC [2, 5]: 64 µg/mL (≈ 240 µM)

Cc1ncc([N+](=O)[O-])n1CCn1cc(CN)nn1.O=C(O)C(F)(F)F [Compound 4t, 1-(2-(2-methyl-5-nitro-1H-imidazol-1-yl)ethyl)-4-(aminomethyl)-1H-1,2,3-triazole trifluoroacetate salt]
MIC [1]: > 32 µg/mL | MIC [2, 3]: > 64 µg/mL | MIC [2, 4]: > 64 µg/mL | MIC [2, 5]: > 64 µg/mL
